Assay [1] deals with bacterial strains that express the class D cephalosporinase OXA-15. Put plainly: Synergy MIC / standard BLI potentiation MIC assay, strains expressing OXA-15. In kind it is cell-based, E. coli. The note with it: in presence of a β-lactam; comparator Avibactam (CCC). A digest of the protocol:
(§1)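 Broth microdilution in CAMHB per CLSI M07-A9, ~10^5 CFU/mL inoculum, 18–20 h at 37 °C with aeration; engineered E. coli kept with 25 μg/mL tetracycline. β-lactam 2-fold from 128 to 0.13 μg/mL with BLI fixed at 4 μg/mL, or BLI serially diluted with β-lactam fixed; MIC is lowest concentration without visible turbidity.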

For assay [2], the system named is bacterial strains that express KPC β-lactamases. Put plainly: Synergy MIC / standard BLI potentiation MIC assay, strains expressing KPC β-lactamases. In kind it is cell-based, isogenic E. coli and clinical isolates. The note with it: more active for at least one KPC strain and/or better spectrum; comparator Avibactam. A digest of the protocol: as §1

Structures can show the parent of a compound that is named as a salt.

On to `N=C(N)NCCc1nnc([C@@H]2CC[C@@H]3CN2C(=O)N3OS(=O)(=O)O)s1` [Compound 794, (2S,5R)-2-(5-(2-guanidinoethyl)-1,3,4-thiadiazol-2-yl)-7-oxo-1,6-diazabicyclo[3.2.1]octan-6-yl hydrogen sulfate], for which, in assay [1], the “activity against bacterial strains that express OXA-15, compared with Avibactam” value is “more active than Avibactam”. Besides, the “activity and/or spectrum of activity against bacterial strains that express KPC β-lactamases, compared with Avibactam” value in assay [2] was “more active than Avibactam”.

For the compound `O=C1N2C[C@@H](CC[C@H]2c2nnc(CCC3CNC3)o2)N1OS(=O)(=O)O` [Compound 742, (2S,5R)-2-(5-(2-(azetidin-3-yl)ethyl)-1,3,4-oxadiazol-2-yl)-7-oxo-1,6-diazabicyclo[3.2.1]octan-6-yl hydrogen sulfate], the “activity against bacterial strains that express OXA-15, compared with Avibactam” value in assay [1] was “more active than Avibactam”. Also, the “activity and/or spectrum of activity against bacterial strains that express KPC β-lactamases, compared with Avibactam” value in assay [2] is listed as “more active than Avibactam”.

For the compound `NC(=O)c1nnc([C@@H]2CC[C@@H]3CN2C(=O)N3OS(=O)(=O)O)o1` [Compound 706, (2S,5R)-2-(5-carbamoyl-1,3,4-oxadiazol-2-yl)-7-oxo-1,6-diaza-bicyclo[3.2.1]octan-6-yl hydrogen sulfate], the “activity against bacterial strains that express OXA-15, compared with Avibactam” value in assay [1] is “more active than Avibactam”. Besides, the “activity and/or spectrum of activity against bacterial strains that express KPC β-lactamases, compared with Avibactam” value in assay [2] is reported as “more active than Avibactam”.

`O=C1N2C[C@@H](CC[C@H]2c2nnc(CC3CCNC3)o2)N1OS(=O)(=O)O` (stereo partly drawn) [Compound 764, (2S,5R)-7-oxo-2-(5-(pyrrolidin-3-ylmethyl)-1,3,4-oxadiazol-2-yl)-1,6-diazabicyclo[3.2.1]octan-6-yl hydrogen sulfate]: the “activity against bacterial strains that express OXA-15, compared with Avibactam” value in assay [1] is on record as “more active than Avibactam”. Further, in assay [2], the “activity and/or spectrum of activity against bacterial strains that express KPC β-lactamases, compared with Avibactam” value is “more active than Avibactam”.

Turning to `N=C(N)N1CC(Cc2nnc([C@@H]3CC[C@@H]4CN3C(=O)N4OS(=O)(=O)O)o2)C1` [Compound 741, (2S,5R)-2-(5-((1-carbamimidoylazetidin-3-yl)methyl)-1,3,4-oxadiazol-2-yl)-7-oxo-1,6-diazabicyclo[3.2.1]octan-6-yl hydrogen sulfate], the “activity against bacterial strains that express OXA-15, compared with Avibactam” value in assay [1] was “more active than Avibactam”. The “activity and/or spectrum of activity against bacterial strains that express KPC β-lactamases, compared with Avibactam” value in assay [2] is “more active than Avibactam”.

As to `N=C(N)NCC1(c2nnc([C@@H]3CC[C@@H]4CN3C(=O)N4OS(=O)(=O)O)o2)CC1` [Compound 723, (2S,5R)-2-(5-(1-(guanidinomethyl)cyclopropyl)-1,3,4-oxadiazol-2-yl)-7-oxo-1,6-diazabicyclo[3.2.1]octan-6-yl hydrogen sulfate], in assay [1], the “activity against bacterial strains that express OXA-15, compared with Avibactam” value is “more active than Avibactam”. Besides, the “activity and/or spectrum of activity against bacterial strains that express KPC β-lactamases, compared with Avibactam” value in assay [2] is listed as “more active than Avibactam”.

On to `CNCCc1nnc([C@@H]2CC[C@@H]3CN2C(=O)N3OS(=O)(=O)O)o1` [Compound 722, (2S,5R)-2-(5-(2-(methylamino)ethyl)-1,3,4-oxadiazol-2-yl)-7-oxo-1,6-diazabicyclo[3.2.1]octan-6-yl hydrogen sulfate], for which, in assay [1], the “activity against bacterial strains that express OXA-15, compared with Avibactam” value is “more active than Avibactam”. The “activity and/or spectrum of activity against bacterial strains that express KPC β-lactamases, compared with Avibactam” value in assay [2] is listed as “more active than Avibactam”.

With `N=C(N)NCCc1nnc([C@@H]2CC[C@@H]3CN2C(=O)N3OS(=O)(=O)O)o1` [Compound 705, (2S,5R)-2-(5-(2-guanidinoethyl)-1,3,4-oxadiazol-2-yl)-7-oxo-1,6-diazabicyclo[3.2.1]octan-6-yl hydrogen sulfate], the “activity against bacterial strains that express OXA-15, compared with Avibactam” value in assay [1] is listed as “more active than Avibactam”. For the same compound, in assay [2], the “activity and/or spectrum of activity against bacterial strains that express KPC β-lactamases, compared with Avibactam” value is reported as “more active than Avibactam”.

On to `N[C@H]1C[C@H](c2nnc([C@@H]3CC[C@@H]4CN3C(=O)N4OS(=O)(=O)O)s2)C1` [Compound 783, (2S,5R)-2-(5-((1r,3S)-3-aminocyclobutyl)-1,3,4-thiadiazol-2-yl)-7-oxo-1,6-diazabicyclo[3.2.1]octan-6-yl hydrogen sulfate], for which the “activity against bacterial strains that express OXA-15, compared with Avibactam” value in assay [1] is recorded as “more active than Avibactam”. For the same compound, the “activity and/or spectrum of activity against bacterial strains that express KPC β-lactamases, compared with Avibactam” value in assay [2] is “more active than Avibactam”.

In the case of `N=C(N)NC1CC(Cc2nnc([C@@H]3CC[C@@H]4CN3C(=O)N4OS(=O)(=O)O)o2)C1` (stereo partly drawn) [Compound 752, (2S,5R)-2-(5-((3-guanidinocyclobutyl)methyl)-1,3,4-oxadiazol-2-yl)-7-oxo-1,6-diazabicyclo[3.2.1]octan-6-yl hydrogen sulfate], the “activity against bacterial strains that express OXA-15, compared with Avibactam” value in assay [1] is listed as “more active than Avibactam”. Further, in assay [2], the “activity and/or spectrum of activity against bacterial strains that express KPC β-lactamases, compared with Avibactam” value is listed as “more active than Avibactam”.

As for `N=C(N)N1CC(NCc2nnc([C@@H]3CC[C@@H]4CN3C(=O)N4OS(=O)(=O)O)o2)C1` [Compound 746, (2S,5R)-2-(5-(((1-carbamimidoylazetidin-3-yl)amino)methyl)-1,3,4-oxadiazol-2-yl)-7-oxo-1,6-diazabicyclo[3.2.1]octan-6-yl hydrogen sulfate], the “activity against bacterial strains that express OXA-15, compared with Avibactam” value in assay [1] is given as “more active than Avibactam”. Also, in assay [2], the “activity and/or spectrum of activity against bacterial strains that express KPC β-lactamases, compared with Avibactam” value is on record as “more active than Avibactam”.

`N=C1NCC(c2nnc([C@@H]3CC[C@@H]4CN3C(=O)N4OS(=O)(=O)O)o2)N1` (stereo partly drawn) [Compound 767, (2S,5R)-2-(5-(2-iminoimidazolidin-4-yl)-1,3,4-oxadiazol-2-yl)-7-oxo-1,6-diazabicyclo[3.2.1]octan-6-yl hydrogen sulfate]: the “activity against bacterial strains that express OXA-15, compared with Avibactam” value in assay [1] was “more active than Avibactam”. Further, in assay [2], the “activity and/or spectrum of activity against bacterial strains that express KPC β-lactamases, compared with Avibactam” value is recorded as “more active than Avibactam”.

As to `O=C1N2C[C@@H](CC[C@H]2c2nnc(CCNC3CNC3)o2)N1OS(=O)(=O)O` [Compound 745, (2S,5R)-2-(5-(2-(azetidin-3-ylamino)ethyl)-1,3,4-oxadiazol-2-yl)-7-oxo-1,6-diazabicyclo[3.2.1]octan-6-yl hydrogen sulfate], the “activity against bacterial strains that express OXA-15, compared with Avibactam” value in assay [1] is listed as “more active than Avibactam”. In addition, in assay [2], the “activity and/or spectrum of activity against bacterial strains that express KPC β-lactamases, compared with Avibactam” value was “more active than Avibactam”.

In the case of `O=C1N2C[C@@H](CC[C@H]2c2nnc(CCNCCO)o2)N1OS(=O)(=O)O` [Compound 736, (2S,5R)-2-(5-(2-((2-hydroxyethyl)amino)ethyl)-1,3,4-oxadiazol-2-yl)-7-oxo-1,6-diazabicyclo[3.2.1]octan-6-yl hydrogen sulfate], the “activity against bacterial strains that express OXA-15, compared with Avibactam” value in assay [1] is reported as “more active than Avibactam”. In addition, the “activity and/or spectrum of activity against bacterial strains that express KPC β-lactamases, compared with Avibactam” value in assay [2] was “more active than Avibactam”.

As for `O=C1N2C[C@@H](CC[C@H]2c2nnc([C@@H]3CCNC3)o2)N1OS(=O)(=O)O` [Compound 759, (2S,5R)-7-oxo-2-(5-((R)-pyrrolidin-3-yl)-1,3,4-oxadiazol-2-yl)-1,6-diazabicyclo[3.2.1]octan-6-yl hydrogen sulfate], the “activity against bacterial strains that express OXA-15, compared with Avibactam” value in assay [1] is on record as “more active than Avibactam”. Further, the “activity and/or spectrum of activity against bacterial strains that express KPC β-lactamases, compared with Avibactam” value in assay [2] is reported as “more active than Avibactam”.

Take `NCCCc1nnc([C@@H]2CC[C@@H]3CN2C(=O)N3OS(=O)(=O)O)o1` [Compound 720, (2S,5R)-2-(5-(3-aminopropyl)-1,3,4-oxadiazol-2-yl)-7-oxo-1,6-diazabicyclo[3.2.1]octan-6-yl hydrogen sulfate]: the “activity against bacterial strains that express OXA-15, compared with Avibactam” value in assay [1] is on record as “more active than Avibactam”. Further, the “activity and/or spectrum of activity against bacterial strains that express KPC β-lactamases, compared with Avibactam” value in assay [2] is recorded as “more active than Avibactam”.

For the compound `O=C1N2C[C@@H](CC[C@H]2c2nnc([C@H]3CCNC3)o2)N1OS(=O)(=O)O` [Compound 758, (2S,5R)-7-oxo-2-(5-((S)-pyrrolidin-3-yl)-1,3,4-oxadiazol-2-yl)-1,6-diazabicyclo[3.2.1]octan-6-yl hydrogen sulfate], in assay [1], the “activity against bacterial strains that express OXA-15, compared with Avibactam” value is listed as “more active than Avibactam”. In addition, in assay [2], the “activity and/or spectrum of activity against bacterial strains that express KPC β-lactamases, compared with Avibactam” value is “more active than Avibactam”.

Consider `N=C(N)N[C@H]1C[C@@H](c2nnc([C@@H]3CC[C@@H]4CN3C(=O)N4OS(=O)(=O)O)o2)C1` [Compound 749, 2S,5R)-2-(5-((1s,3R)-3-guanidinocyclobutyl)-1,3,4-oxadiazol-2-yl)-7-oxo-1,6-diazabicyclo[3.2.1]octan-6-yl hydrogen sulfate], for which, in assay [1], the “activity against bacterial strains that express OXA-15, compared with Avibactam” value was “more active than Avibactam”. In addition, the “activity and/or spectrum of activity against bacterial strains that express KPC β-lactamases, compared with Avibactam” value in assay [2] is listed as “more active than Avibactam”.

For `O=C1N2C[C@@H](CC[C@H]2c2nnc(CCN3CCNCC3)o2)N1OS(=O)(=O)O` [Compound 776, (2S,5R)-7-oxo-2-(5-(2-(piperazin-1-yl)ethyl)-1,3,4-oxadiazol-2-yl)-1,6-diazabicyclo[3.2.1]octan-6-yl hydrogen sulfate], the “activity against bacterial strains that express OXA-15, compared with Avibactam” value in assay [1] is on record as “more active than Avibactam”. Besides, in assay [2], the “activity and/or spectrum of activity against bacterial strains that express KPC β-lactamases, compared with Avibactam” value was “more active than Avibactam”.

Consider `N[C@H]1C[C@H](Cc2nnc([C@@H]3CC[C@@H]4CN3C(=O)N4OS(=O)(=O)O)o2)C1` [Compound 751, (2S,5R)-2-(5-(((1r,3S)-3-aminocyclobutyl)methyl)-1,3,4-oxadiazol-2-yl)-7-oxo-1,6-diazabicyclo[3.2.1]octan-6-yl hydrogen sulfate], for which, in assay [1], the “activity against bacterial strains that express OXA-15, compared with Avibactam” value is reported as “more active than Avibactam”. Also, the “activity and/or spectrum of activity against bacterial strains that express KPC β-lactamases, compared with Avibactam” value in assay [2] is “more active than Avibactam”.

The values above are taken from US8933233B2, “1,3,4-oxadiazole and 1,3,4-thiadiazole β-lactamase inhibitors” (priority 2012, dated 2015).
